Read-outs that look alike come from different tables or passages of the source. Where a SMILES comes first, the peptide text is derived from it. Bridges are numbered along the chain shown (N, C = ends).
What was measured:
[1] = Pharmacokinetic modeling with sparse PK samples from 69 patients with HRS-1; conditions: for AUC(0-t) / Cmax: iv
mouse = assay: In vivo mouse micronucleus assay
QTc interval = assay: Cardiac electrophysiology in 41 patients with HRS-1; format: in vivo, human; conditions: 1 mg terlipressin acetate every 6 hours up to 14 days; Fridericia correction
Source text: Increases of the mean QTc interval of <10 ms were reported.

[2] = Pharmacokinetics and excretion in healthy subjects
pregnant women = conditions: single intravenous or intranasal dose, first trimester; cited from earlier work
[3] = background statement; cited from earlier work
pregnant guinea pigs = conditions: doses lower than the maximum recommended human dose of 4 mg/day; cited from earlier work
patients = conditions: voluntary reports; cited from earlier work
bacterial = assay: In vitro bacterial reverse mutation assay
patients with HRS-1 [4] = assay: ACLF grade and respiratory failure with terlipressin, double-blind placebo-controlled trial (Example 3); format: in vivo, human
Description: In FIG. 6B, the incidence of respiratory failure was based on CLIF-SOFA score definition of respiratory failure.
The study was a double-blind placebo-controlled trial. […] HRS-1 was defined as rapidly rising serum creatinine (SCr) to ≥2.25 mg/dl in <14 days without response to volume challenge or evidence of structural renal disease.
All patients were assessed for organ failure (OF) per EASL-CLIF criteria and then classified into grades of acute-on-chronic liver failure (ACLF). All patients had at minimum grade 1 ACLF due to the presence of HRS-1; grades 2 and 3 ACLF represent 2 or 3 OFs respectively. Patients were separated into into grade≤2 and grade 3 ACLF subgroups.

mammalian cell (CHO) = assay: In vitro mammalian cell (CHO) chromosome aberration assay
rabbits = conditions: increased resorptions, implantation loss, fetal anomalies and deformities; cited from earlier work
[5] = Metabolism in blood or plasma
Source text: Once formed, lysine-vasopressin is metabolized by body tissue via various peptidase-mediated routes.

[6] = tested on: human ABC and SLC transporters; assay: Transporter inhibition and substrate studies; format: in vitro ADME
Source text: (§1) No significant drug-drug interactions are anticipated with terlipressin (TERLIVAZ).

CYP enzymes = assay: CYP inhibition and induction in human liver microsomes; format: in vitro ADME
Source text: as §1

patients with HRS-1 [7] = assay: CONFIRM randomized, placebo-controlled, double-blind study of terlipressin plus albumin; conditions: for between-group difference in the incidence of respiratory failure SAEs / between-group difference in the incidence of respiratory failure fatal AEs: terlipressin minus placebo
Description: In particular, HRS-1 was defined based on modified prior criteria outlined by the International Club of Ascites (ICA), as rapidly deteriorating renal function to SCr≥2.25 mg/dl, with actual or projected doubling of SCr within 2 weeks, without improvement in renal function (<20% decrease in SCr 48 hours after both diuretic withdrawal and albumin-fluid challenge) in adult patients with cirrhosis and ascites. […] Treatment was continued to Day 14 unless the following occurred: verified HRS reversal (VHRSR), renal replacement therapy (RRT), liver transplantation (LT) or SCr at or above baseline (BL) at Day 4. VHRSR, the primary endpoint, was defined as 2 consecutive SCr values≤1.5 mg/dl, at least 2 hours apart, with subjects alive without RRT for at least 10 days after the second SCr≤1.5 mg/dL; HRS reversal (HRSR) was a decrease in SCr to ≤1.5 mg/dL. Secondary end points included HRS reversal (any SCr value 1.5 mg/dL or less during treatment), HRS reversal without RRT by day 30, HRS reversal in patients with systemic inflammatory response syndrome, and verified HRS reversal without recurrence by day 30.
The patients were at least 18 years of age, with cirrhosis, ascites, and rapidly progressive renal failure, with a SCr doubling to at least 2.25 mg/dL within 14 days. Major exclusion criteria included SCr of greater than 7.0 mg/dL, one or more large-volume paracenteses of 4 L or more within 2 days of randomization, evidence of parenchymal renal diseases or obstructive uropathy, or presence of sepsis and/or uncontrolled bacterial infection. Patients with severe cardiovascular disease or recent (within 4 weeks) renal replacement therapy (RRT) were excluded.
300 subjects were enrolled in the study. […] Patients were stratified by qualifying SCr (less than 3.4 mg/dL or 3.4 mg/dL or greater) and pre-enrollment large-volume paracentesis (at least one single event of 4 L or greater, or less than 4 L within 3 to 14 days prior to randomization).
A baseline SCr value was assessed before the patients received the assigned treatment. […] In keeping with current guidelines, it was strongly recommended that albumin (1 g/kg to a maximum of 100 g, on day 1 and 20 to 40 g/day thereafter) be administered to all subjects. If SCr decreased <30% from the baseline value on Day 4, after a minimum of 10 doses of study drug, dose increase to 2 mg every 6 hours (±30 minutes) (8 mg/day) was mandated, except in subjects with coronary artery disease or in the setting of circulatory overload, pulmonary edema, or bronchospasm. Dose resumption was permitted after interruption for adverse events except for cardiac or mesenteric ischemia, for which treatment was permanently discontinued.
The primary efficacy end point was the incidence of verified HRS reversal, defined as the percentage of patients with two consecutive SCr values no greater than 1.5 mg/dl at least 2 hours apart, while remaining alive without RRT for at least 10 days after achieving verified HRS reversal, while excluding SCr values after RRT, transjugular intrahepatic portosystemic shunt, liver transplant, or open-label vasopressor from primary end point analysis.
Secondary efficacy end points included incidence of HRS reversal, defined as the percentage of patients with an on-treatment SCr value of 1.5 mg/dl or less; durability of HRS reversal, defined as the percentage of patients with HRS reversal without RRT to day 30; incidence of HRS reversal among patients with systemic inflammatory response syndrome; and incidence of verified HRS reversal without HRS recurrence by day 30.

clinical = conditions: human, in vivo; for AUC(0-t) / Cmax: iv
[8] = human, in vivo

**Q.** What does the source list for `NCCCC[C@H](NC(=O)[C@@H]1CCCN1C(=O)[C@@H]1CSSC[C@H](NC(=O)CNC(=O)CNC(=O)CN)C(=O)N[C@@H](Cc2ccc(O)cc2)C(=O)N[C@@H](Cc2ccccc2)C(=O)N[C@@H](CCC(N)=O)C(=O)N[C@@H](CC(N)=O)C(=O)N1)C(=O)NCC(N)=O` [Terlipressin, N—[N—(N-glycylglycyl)glycyl]-8-L-lysinevasopressin] (H-GGGCYFQNCPKG-NH2; disulfide 4-9 (inferred))?
**A.** median Cave at steady state ([1]; 1 mg IV injection of terlipressin acetate): 14.2 ng/mL; mean Cave ([1]; 1 mg dose of terlipressin acetate IV): about 14.2 ng/ml; Vd ([1]; human, in vivo): 6.3 L; clearance ([1]; human, in vivo, 1 mg, clearance (derived typical population PK parameter), 1 mg terlipressin acetate): 457 mL/min; clearance ([1]; human, in vivo, clearance, typical population PK parameter (range)): 413 to 518 mL/min; AUC(0-t) ([1]; human, in vivo, 1 mg, AUC24h (range), 1 mg dose of terlipressin acetate IV): 61.2 to 246 ng·h/mL; Cmax ([1]; human, in vivo, 1 mg, Cmax (range), 1 mg dose of terlipressin acetate IV): 37.1 to 143 ng/mL; AUC(0-t) ([1]; human, in vivo, 1 mg, mean AUC24h, 1 mg dose of terlipressin acetate IV): ~123 ng·h/mL; Cmax ([1]; human, in vivo, 1 mg, mean Cmax, 1 mg dose of terlipressin acetate IV): ~70.5 ng/mL; AUC(0-t) ([1]; human, in vivo, 1 mg, median AUC24h at steady state, 1 mg IV injection of terlipressin acetate): 123 ng·h/mL; Cmax ([1]; human, in vivo, 1 mg, median Cmax at steady state, 1 mg IV injection of terlipressin acetate): 70.5 ng/mL; half-life ([1]; human, in vivo, terminal half-life): ~0.9 h; mutagenicity / clastogenicity (mouse): not mutagenic or clastogenic; Increases of the mean QTc interval (QTc interval): < 10 ms; QTc changes from baseline (QTc interval): No clinically meaningful changes from baseline; dose-dependent changes in the elimination rate constant [2]: no dose-dependent changes; pharmacokinetic linearity [2]: linear pharmacokinetics; effect in pregnancy (pregnant women): induced uterine contractions and endometrial ischemia; duration of action [3]: 2 to 10 h; half-life [3]: 6 h; reproductive toxicity finding (pregnant guinea pigs): marked decrease in blood flow to the uterus and placenta; Adverse reactions reported from postmarketing experience (patients): headache hyponatremia, skin necrosis and gangrene; mutagenicity / clastogenicity (bacterial): not mutagenic or clastogenic; percent of patients with respiratory failure (patients with HRS-1 [4]; ACLF 3, FIG. 6C, investigator reported): much higher than placebo; incidence of respiratory failure, baseline to end of treatment (patients with HRS-1 [4]; FIGS. 6A-6B, CLIF-SOFA definition): increased incidence of respiratory failure; mutagenicity / clastogenicity (mammalian cell (CHO)): not mutagenic or clastogenic; reproductive toxicity finding (rabbits): embryotoxic and teratogenic; metabolism in blood or plasma [5]: not metabolized in blood or plasma; inhibitor and substrate of human ABC and SLC transporters [6]: little or no evidence; direct-, time-, or metabolism dependent inhibitor and inducer of CYP enzymes (CYP enzymes): little or no evidence; Treatment discontinuation due to adverse events (patients with HRS-1 [7]; 24/200 patients): 12.0%; most common adverse events that led to discontinuation (patients with HRS-1 [7]; in vivo): respiratory failure, abdominal pain, and intestinal ischemia/obstruction; subjects listed at baseline who did not receive a transplant and died by Day 90 (pre-transplant mortality) (patients with HRS-1 [7]; mitigated population, 4 subjects): 11.4%; AE leading to death up to 30 days post-treatment: Respiratory failure (patients with HRS-1 [7]; mitigated population, N = 132): 5.3 % of Subjects; Any AE leading to death up to 30 days post-treatment (patients with HRS-1 [7]; mitigated population, N = 132): 34.1 % of Subjects; Death by Day 30 (patients with HRS-1 [7]; mitigated population, N = 132): 31.8 % of Subjects; Death by Day 60 (patients with HRS-1 [7]; mitigated population, N = 132): 40.2 % of Subjects; Death by Day 90 (patients with HRS-1 [7]; mitigated population, N = 132): 44.7 % of Subjects; Serior Adverse Events (patients with HRS-1 [7]; mitigated population, N = 132): 61.4 % of Subjects; Serious adverse events: Respiratory failure (patients with HRS-1 [7]; mitigated population, N = 132): 9.8 % of Subjects; Any AE leading to death up to 30 days post-treatment (patients with HRS-1 [7]; mitigated population, N = 132, listed as terlipressin): 31.8 % of Subjects; subjects listed at baseline who did not receive a transplant and died by Day 90 (pre-transplant mortality) (patients with HRS-1 [7]; overall population, 12 subjects): 21.4%; AE leading to death up to 30 days post-treatment: Respiratory failure (patients with HRS-1 [7]; overall population, N = 200): 8.5 % of Subjects; Any AE leading to death up to 30 days post-treatment (patients with HRS-1 [7]; overall population, N = 200): 41.5 % of Subjects; Death by Day 30 (patients with HRS-1 [7]; overall population, N = 200): 39.0 % of Subjects; Death by Day 60 (patients with HRS-1 [7]; overall population, N = 200): 47.0 % of Subjects; Death by Day 90 (patients with HRS-1 [7]; overall population, N = 200): 51.0 % of Subjects; Serior Adverse Events (patients with HRS-1 [7]; overall population, N = 200): 65.0 % of Subjects; Serious adverse events: Respiratory failure (patients with HRS-1 [7]; overall population, N = 200): 13.5 % of Subjects; Any AE leading to death up to 30 days post-treatment (patients with HRS-1 [7]; overall population, N = 200, listed as terlipressin): 39.0 % of Subjects; Adverse reaction: Abdominal pain (patients with HRS-1 [7]; patients (percent), N = 200): 39 (19.5); Adverse reaction: Bradycardia (patients with HRS-1 [7]; patients (percent), N = 200): 10 (5.0); Adverse reaction: Diarrhea (patients with HRS-1 [7]; patients (percent), N = 200): 26 (13.0); Adverse reaction: Dyspnea (patients with HRS-1 [7]; patients (percent), N = 200): 25 (12.5); Adverse reaction: Fluid overload (patients with HRS-1 [7]; patients (percent), N = 200): 17 (8.5); Adverse reaction: Nausea (patients with HRS-1 [7]; patients (percent), N = 200): 32 (16.0); Adverse reaction: Pleural effusion (patients with HRS-1 [7]; patients (percent), N = 200): 11 (5.5); Adverse reaction: Respiratory failure (patients with HRS-1 [7]; patients (percent), N = 200): 31 (15.5); Adverse reaction: Sepsis (patients with HRS-1 [7]; patients (percent), N = 200): 11 (5.5); Adverse reaction: Ischemia-related events (patients with HRS-1 [7]; patients (percent), N = 200, skin discoloration, cyanosis, ischemia and intestinal ischemia): 9 (4.5); serious or fatal respiratory failure (patients with HRS-1 [7]; primary clinical trial): 14%; between-group difference in the incidence of respiratory failure SAEs (patients with HRS-1 [7]; mitigated population): 2.8%; between-group difference in the incidence of respiratory failure fatal AEs (patients with HRS-1 [7]; mitigated population): 3.9%; between-group difference in the incidence of respiratory failure fatal AEs (patients with HRS-1 [7]; overall population): 7.5%; between-group difference in the incidence of respiratory failure SAEs (patients with HRS-1 [7]; overall study population): 8.4%

**Q.** For `NCCCC[C@H](NC(=O)[C@@H]1CCCN1C(=O)[C@@H]1CSSC[C@H](N)C(=O)N[C@@H](Cc2ccc(O)cc2)C(=O)N[C@@H](Cc2ccccc2)C(=O)N[C@@H](CCC(N)=O)C(=O)N[C@@H](CC(N)=O)C(=O)N1)C(=O)NCC(N)=O` [lysine-vasopressin], which Vd (clinical) is on record?
**A.** Its Vd is 1370 L.

**Q.** And the clearance (clinical; 1 mg, clearance (derived typical population PK parameter))?
**A.** Its clearance is 5300 mL/min.

**Q.** And the clearance (clinical; clearance, typical population PK parameter (range))?
**A.** Its clearance is 4720 to 6050 mL/min.

**Q.** What about the AUC(0-t) (clinical; 1 mg, AUC24h (range)) of the same compound?
**A.** Its AUC(0-t) is 3.78 to 33.5 ng·h/mL.

**Q.** And the Cmax (clinical; 1 mg, Cmax (range))?
**A.** The Cmax was 0.4 to 3.36 ng/mL.

**Q.** And the AUC(0-t) (clinical; 1 mg, mean AUC24h)?
**A.** Its AUC(0-t) is 11.2 ng·h/mL.

**Q.** And the Cmax (clinical; 1 mg, mean Cmax)?
**A.** Its Cmax is about 1.2 ng/mL.

**Q.** And the AUC(0-t) (clinical; 1 mg, median AUC24h at steady state)?
**A.** The AUC(0-t) was 11.2 ng·h/mL.

**Q.** And the Cmax (clinical; 1 mg, median Cmax at steady state)?
**A.** Its Cmax is 1.2 ng/mL.

**Q.** And the half-life (clinical; terminal half-life)?
**A.** Its half-life is about 3 h.

**Q.** What about the pharmacokinetic linearity [8] of the same compound?
**A.** The pharmacokinetic linearity was “linear pharmacokinetics”.

**Q.** Which results are given for `NC(=O)CC[C@@H]1NC(=O)[C@H](Cc2ccccc2)NC(=O)[C@H](Cc2ccc(O)cc2)NC(=O)[C@@H](N)CSSC[C@@H](C(=O)N2CCC[C@H]2C(=O)N[C@@H](CCCN=C(N)N)C(=O)NCC(N)=O)NC(=O)[C@H](CC(N)=O)NC1=O` [vasopressin]?
**A.** duration of action [3]: 0.5 to 1 h; half-life [3]: 0.1 h

Source: patent US20250276033A1, “COMPOSITIONS FOR IMPROVING KIDNEY FUNCTION IN PATIENTS WITH HEPATORENAL SYNDROME” (Mallinckrodt Pharmaceuticals Ireland Limited, priority 2022, published 2025)
